Experimental data taken from patent US6479435B1, “Diaryl ethers and processes for their preparation and herbicidal and desiccant compositions containing them” (ISK Americas Incorporated, priority 1997, dated 2002).

What was measured:
Format in all cases: in vivo
[1] = test system: Johnsongrass (Sorghum halepense, SORHA); assay: Pre-emerge greenhouse herbicide test, phytotoxicity rating; conditions: 14 days after application, rating scale 0-100
Excerpt: (§1) A standard greenhouse herbicide activity screening system was used to evaluate the herbicidal efficacy and crop safety of these test compounds. Six broadleaf weed species including redroot pigweed (Amaranthus retroflexus, AMARE), velvetleaf (Abutilon theophrasti, ABUTH), sicklepod (Cassia obtusifolia, CASOB), ivyleaf morningglory (Ipomoea hederacea, IPOHE), lambsquarters (Chenopodium album, CHEAL) and common ragweed (Ambrosia artemisiifolia L., AMBEL) were used as test species. Four grass weed species including green foxtail (Setaria viridis, SETVI), barnyardgrass (Echinochloa crusgalli, ECHCG), Johnsongrass (Sorghum halepense, SORHA), and large crabgrass (Digitaria sanguinalis, DIGSA) were also used. In addition, three crop species, field corn (Zea mays L., var. Dekalb 535, CORN), soybean (Glycine max L., var. Pella 86, SOY), and upland rice (Oryza sp., var.Tebonnet, RICE) were included.
(§2) All plants were grown in 10 cm square plastic pots which were filled with a sandy loam soil mix. For preemerge tests, seeds were planted one day prior to application of the test compounds. Immediately after application, test units of the pre-emerge applications were watered at the soil surface to incorporate the test materials. Subsequently, these test units were bottom-watered.
(§3) All test compounds were dissolved in acetone and applied to the test units in a volume of 187 l/ha. Test materials were applied at rates ranging from 125 g ai/ha to 1000 g ai/ha using a track sprayer equipped with a TJ8001E even flow flat fan spray nozzle. Plants were arranged on a shelf so that the top of the canopy (post-emerge) or top of the soil surface (pre-emerge) was 40-45 cm below the nozzle. Pressurized air was used to force the test solution through the nozzle as it was mechanically advanced (via electrically driven chain drive) over the top of all test plants/pots. This application simulates a typical commercial field herbicide application.
(§4) At 14 days after application of the test materials, phytotoxicity ratings were recorded. A rating scale of 0-100 was used as previously described in Research Methods in Weed Science, 2nd edition, B. Truelove, Ed., Southern Weed Science Society, Auburn University, Auburn, Ala., 1977. Briefly, “0” corresponds to no damage and “100” corresponds to complete death of all plants in the test unit. This scale was used both to determine efficacy against weed species and damage to crop species. Herbicide activity data for various compounds of this invention, which are shown by compound number in Tables 1-9, are shown in Tables 13 and 14.

[2] = test system: barnyardgrass (Echinochloa crusgalli, ECHCG); assay: as above; conditions: 14 days after application, rating scale 0-100
Excerpt: as §1, §2, §3, §4

[3] = test system: green foxtail (Setaria viridis, SETVI); assay: as above; conditions: 14 days after application, rating scale 0-100
Excerpt: as §1, §2, §3, §4

[4] = test system: ivyleaf morningglory (Ipomoea hederacea, IPOHE); assay: as above; conditions: 14 days after application, rating scale 0-100
Excerpt: as §1, §2, §3, §4

[5] = test system: lambsquarters (Chenopodium album, CHEAL); assay: as above; conditions: 14 days after application, rating scale 0-100
Excerpt: as §1, §2, §3, §4

[6] = test system: large crabgrass (Digitaria sanguinalis, DIGSA); assay: as above; conditions: 14 days after application, rating scale 0-100
Excerpt: as §1, §2, §3, §4

[7] = test system: redroot pigweed (Amaranthus retroflexus, AMARE); assay: as above; conditions: 14 days after application, rating scale 0-100
Excerpt: as §1, §2, §3, §4

[8] = test system: sicklepod (Cassia obtusifolia, CASOB); assay: as above; conditions: 14 days after application, rating scale 0-100
Excerpt: as §1, §2, §3, §4

[9] = test system: velvetleaf (Abutilon theophrasti, ABUTH); assay: as above; conditions: 14 days after application, rating scale 0-100
Excerpt: as §1, §2, §3, §4

[10] = test system: field corn (Zea mays L., var. Dekalb 535, CORN); assay: Pre-emerge greenhouse test, crop damage rating; conditions: 14 days after application, rating scale 0-100
Excerpt: as §1, §2, §3, §4

[11] = test system: upland rice (Oryza sp., var.Tebonnet, RICE); assay: Pre-emerge greenhouse test, crop damage rating; conditions: 14 days after application, rating scale 0-100
Excerpt: as §1, §2, §3, §4

[12] = test system: soybean (Glycine max L., var. Pella 86, SOY); assay: Pre-emerge greenhouse test, crop damage rating; conditions: 14 days after application, rating scale 0-100
Excerpt: as §1, §2, §3, §4

[13] = test system: Johnsongrass (Sorghum halepense, SORHA); assay: Post-emerge greenhouse herbicide test, phytotoxicity rating; conditions: 14 days after application
Excerpt: as §1, §3
(§5) In the post-emerge test, a commercial non-ionic surfactant was also included (0.25% v/v) to enhance wetting of the leaf surfaces Qf target plants at rates ranging from 63 g ai/ha to 1000 g ai/ha. For post-emerge tests, seeds were planted 8-21 days prior to the test to allow emergence and good foliage development prior to application of the test substances. At the time of the post-emerge application, plants of all species were usually at the 2-3 leaf stage of development. Post-emerge test units were always bottom-watered.
as §4

[14] = test system: barnyardgrass (Echinochloa crusgalli, ECHCG); assay: as above; conditions: 14 days after application
Excerpt: as §1, §3, §5, §4

[15] = test system: green foxtail (Setaria viridis, SETVI); assay: as above; conditions: 14 days after application
Excerpt: as §1, §3, §5, §4

[16] = test system: ivyleaf morningglory (Ipomoea hederacea, IPOHE); assay: as above; conditions: 14 days after application
Excerpt: as §1, §3, §5, §4

[17] = test system: lambsquarters (Chenopodium album, CHEAL); assay: as above; conditions: 14 days after application
Excerpt: as §1, §3, §5, §4

[18] = test system: large crabgrass (Digitaria sanguinalis, DIGSA); assay: as above; conditions: 14 days after application
Excerpt: as §1, §3, §5, §4

[19] = test system: redroot pigweed (Amaranthus retroflexus, AMARE); assay: as above; conditions: 14 days after application
Excerpt: as §1, §3, §5, §4

[20] = test system: sicklepod (Cassia obtusifolia, CASOB); assay: as above; conditions: 14 days after application
Excerpt: as §1, §3, §5, §4

[21] = test system: velvetleaf (Abutilon theophrasti, ABUTH); assay: as above; conditions: 14 days after application
Excerpt: as §1, §3, §5, §4

[22] = test system: field corn (Zea mays L., var. Dekalb 535, CORN); assay: Post-emerge greenhouse test, crop damage rating; conditions: 14 days after application
Excerpt: as §1, §3, §5, §4

[23] = test system: upland rice (Oryza sp., var.Tebonnet, RICE); assay: Post-emerge greenhouse test, crop damage rating; conditions: 14 days after application
Excerpt: as §1, §3, §5, §4

[24] = test system: soybean (Glycine max L., var. Pella 86, SOY); assay: Post-emerge greenhouse test, crop damage rating; conditions: 14 days after application
Excerpt: as §1, §3, §5, §4

N#Cc1cccnc1Oc1cc(-n2c(=O)cc3n(c2=O)CCC3)c(F)cc1Cl [Compound 5-9]
phytotoxicity rating SORHA ([1]; 1000 g ai/ha): 90
phytotoxicity rating ECHCG ([2]; 1000 g ai/ha): 0
phytotoxicity rating SETVI ([3]; 1000 g ai/ha): 90
phytotoxicity rating IPOHE ([4]; 1000 g ai/ha): 100
phytotoxicity rating CHEAL ([5]; 1000 g ai/ha): 100
phytotoxicity rating DIGSA ([6]; 1000 g ai/ha): 90
phytotoxicity rating AMARE ([7]; 1000 g ai/ha): 80
phytotoxicity rating CASOB ([8]; 1000 g ai/ha): 30
phytotoxicity rating ABUTH ([9]; 1000 g ai/ha): 100
crop damage rating CORN ([10]; 1000 g ai/ha): 0
crop damage rating RICE ([11]; 1000 g ai/ha): 50
crop damage rating SOY ([12]; 1000 g ai/ha): 50
SORHA phytotoxicity rating (0-100) ([13]; 1000 g al/ha): 0
ECHCG phytotoxicity rating (0-100) ([14]; 1000 g al/ha): 0
SETVI phytotoxicity rating (0-100) ([15]; 1000 g al/ha): 10
IPOHE phytotoxicity rating (0-100) ([16]; 1000 g al/ha): 90
CHEAL phytotoxicity rating (0-100) ([17]; 1000 g al/ha): 70
DIGSA phytotoxicity rating (0-100) ([18]; 1000 g al/ha): 0
AMARE phytotoxicity rating (0-100) ([19]; 1000 g al/ha): 50
CASOB phytotoxicity rating (0-100) ([20]; 1000 g al/ha): 30
ABUTH phytotoxicity rating (0-100) ([21]; 1000 g al/ha): 100
CORN crop damage rating (0-100) ([22]; 1000 g al/ha): 5
RICE crop damage rating (0-100) ([23]; 1000 g al/ha): 25
SOY crop damage rating (0-100) ([24]; 1000 g al/ha): 30

O=c1cc2n(c(=O)n1-c1cc(Oc3ncccn3)c(Cl)cc1F)CCC2 [Compound 5-12]
phytotoxicity rating SORHA ([1]; 125 g ai/ha): 40
phytotoxicity rating SORHA ([1]; 500 g ai/ha): 100
phytotoxicity rating ECHCG ([2]; 125 g ai/ha): 20
phytotoxicity rating ECHCG ([2]; 500 g ai/ha): 100
phytotoxicity rating SETVI ([3]; 125 g ai/ha): 100
phytotoxicity rating SETVI ([3]; 500 g ai/ha): 100
phytotoxicity rating IPOHE ([4]; 125 g ai/ha): 80
phytotoxicity rating IPOHE ([4]; 500 g ai/ha): 100
phytotoxicity rating CHEAL ([5]; 125 g ai/ha): 100
phytotoxicity rating CHEAL ([5]; 500 g ai/ha): 100
phytotoxicity rating DIGSA ([6]; 125 g ai/ha): 100
phytotoxicity rating DIGSA ([6]; 500 g ai/ha): 100
phytotoxicity rating AMARE ([7]; 125 g ai/ha): 100
phytotoxicity rating AMARE ([7]; 500 g ai/ha): 100
phytotoxicity rating CASOB ([8]; 125 g ai/ha): 50
phytotoxicity rating CASOB ([8]; 500 g ai/ha): 100
phytotoxicity rating ABUTH ([9]; 125 g ai/ha): 100
phytotoxicity rating ABUTH ([9]; 500 g ai/ha): 100
crop damage rating CORN ([10]; 125 g ai/ha): 10
crop damage rating CORN ([10]; 500 g ai/ha): 40
crop damage rating RICE ([11]; 125 g ai/ha): 60
crop damage rating RICE ([11]; 500 g ai/ha): 100
crop damage rating SOY ([12]; 125 g ai/ha): 40
crop damage rating SOY ([12]; 500 g ai/ha): 80
SORHA phytotoxicity rating (0-100) ([13]; 63 g al/ha): 0
SORHA phytotoxicity rating (0-100) ([13]; 500 g al/ha): 20
ECHCG phytotoxicity rating (0-100) ([14]; 63 g al/ha): 0
ECHCG phytotoxicity rating (0-100) ([14]; 500 g al/ha): 40
SETVI phytotoxicity rating (0-100) ([15]; 63 g al/ha): 0
SETVI phytotoxicity rating (0-100) ([15]; 500 g al/ha): 50
IPOHE phytotoxicity rating (0-100) ([16]; 63 g al/ha): 40
IPOHE phytotoxicity rating (0-100) ([16]; 500 g al/ha): 30
CHEAL phytotoxicity rating (0-100) ([17]; 63 g al/ha): 60
CHEAL phytotoxicity rating (0-100) ([17]; 500 g al/ha): 75
DIGSA phytotoxicity rating (0-100) ([18]; 63 g al/ha): 0
DIGSA phytotoxicity rating (0-100) ([18]; 500 g al/ha): 40
AMARE phytotoxicity rating (0-100) ([19]; 63 g al/ha): 80
AMARE phytotoxicity rating (0-100) ([19]; 500 g al/ha): 40
CASOB phytotoxicity rating (0-100) ([20]; 63 g al/ha): 10
CASOB phytotoxicity rating (0-100) ([20]; 500 g al/ha): 50
ABUTH phytotoxicity rating (0-100) ([21]; 63 g al/ha): 60
ABUTH phytotoxicity rating (0-100) ([21]; 500 g al/ha): 95
CORN crop damage rating (0-100) ([22]; 63 g al/ha): 0
CORN crop damage rating (0-100) ([22]; 500 g al/ha): 20
RICE crop damage rating (0-100) ([23]; 63 g al/ha): 0
RICE crop damage rating (0-100) ([23]; 500 g al/ha): 70
SOY crop damage rating (0-100) ([24]; 63 g al/ha): 50
SOY crop damage rating (0-100) ([24]; 500 g al/ha): 100

CCN1CC(=O)N(c2cc(Oc3ncccc3C(F)(F)F)c(Cl)cc2F)C1=O [Compound 8-1, 3-[4-chloro-2-fluoro-5-(trifluoromethyl-2-pyridyloxy)phenyl]-1-ethylimidazolidine-2,4-dione]
phytotoxicity rating SORHA ([1]; 500 g ai/ha): 60
phytotoxicity rating ECHCG ([2]; 500 g ai/ha): 40
phytotoxicity rating SETVI ([3]; 500 g ai/ha): 85
phytotoxicity rating IPOHE ([4]; 500 g ai/ha): 30
phytotoxicity rating CHEAL ([5]; 500 g ai/ha): 100
phytotoxicity rating DIGSA ([6]; 500 g ai/ha): 100
phytotoxicity rating AMARE ([7]; 500 g ai/ha): 100
phytotoxicity rating CASOB ([8]; 500 g ai/ha): 70
phytotoxicity rating ABUTH ([9]; 500 g ai/ha): 95
crop damage rating CORN ([10]; 500 g ai/ha): 0
crop damage rating RICE ([11]; 500 g ai/ha): 30
crop damage rating SOY ([12]; 500 g ai/ha): 0
SORHA phytotoxicity rating (0-100) ([13]; 500 g al/ha): 0
ECHCG phytotoxicity rating (0-100) ([14]; 500 g al/ha): 0
SETVI phytotoxicity rating (0-100) ([15]; 500 g al/ha): 10
IPOHE phytotoxicity rating (0-100) ([16]; 500 g al/ha): 70
CHEAL phytotoxicity rating (0-100) ([17]; 500 g al/ha): 85
DIGSA phytotoxicity rating (0-100) ([18]; 500 g al/ha): 0
AMARE phytotoxicity rating (0-100) ([19]; 500 g al/ha): 40
CASOB phytotoxicity rating (0-100) ([20]; 500 g al/ha): 30
ABUTH phytotoxicity rating (0-100) ([21]; 500 g al/ha): 90
CORN crop damage rating (0-100) ([22]; 500 g al/ha): 0
RICE crop damage rating (0-100) ([23]; 500 g al/ha): 0
SOY crop damage rating (0-100) ([24]; 500 g al/ha): 50
